The record followed here is patent US20240207253A1, “Inhibitors of CDR1 for Reversal of Azole Drug Resistance in Fungal Infections” (UNM RAINFOREST INNOVATIONS, priority 2021, published 2024).

SMILES strings stand for the structures.

Experiment [1] relates to Cdr1p-GFP. Put plainly: Cdr1p-GFP whole cell fluorescence-based flow cytometry assay (primary screen and dose response). More on the design: species or system C. albicans. The settings on record: 10 μM, positive control, isolate 5674 CDR1-GFP. On the technique in general: Flow cytometry measures light scatter and fluorescence of single cells or particles in a stream.
Excerpt: Utilizing the novel approach of inhibition of CDR1 (Cdr1p) expression, initial experiments were directed to screening libraries of small molecules using a high-throughput whole cell fluorescence-based flow cytometry assay to identify agents that inhibit expression of CDR1-GFP in an azole-resistant C. albicans strain.
Each sample in the scaffold ranking screen contains only mixtures of compounds with the shared core scaffold. All compounds in a specific mixture are represented in approximately equal molar concentrations. The inventors performed the screen using the C. albicans azole-resistant, clinical isolate 5674, which was modified to carry a CDR1 allele tagged with GFP-encoding sequence. Modulation of Cdr1p-GFP levels in response to scaffold mixtures was assessed relative to basal levels (Response Ratio), from which scaffolds were ranked. […] The inventors used tacrolimus at 10 μM concentration as positive control in all screening assays.
The assay readout, GFP fluorescence levels as detected by a flow cytometer, is directly related to the levels of Cdr1p of the cell. Thus, flow cytometry data from each screen provides direct evidence that Cdr1p is modulated by hit compounds. […] False-positive hits were identified in follow-up dose-response assays where the effect of serial dilutions of each compound on Cdr1p-GFP levels was assessed.
Experiment [2] has as its system C. albicans strain 5674. Put plainly: Adenylate kinase (AK) release assay on assay supernatant. The note with it: caspofungin 50 ng/ml, positive control. Type of experiment: cell-based.
Description: In addition to the output from the dose-response assays, we included an experimental step designed to identify compounds with fungicidal potential. Specifically, the inventors used the assay supernatant to interrogate for the presence of adenylate kinase (AK), an enzyme that is released from the cells when the cell wall or plasma membrane integrity is compromised. Low-dose caspofungin (50 ng/ml), an echinocandin known for its antifungal property due to disruption of the cell wall, was used as a positive control.
For experiment [3], the system named is C. krusei reference strain, ATCC 6258. Put plainly: CLSI microbroth dilution checkerboard assay with fluconazole. It counts as cell-based. The settings on record: Pichia kudriavzevii, ATCC6258; fluconazole alone. As to the method: (§1) Overexpression of Cdr1p has been implicated in azole resistance in many fluconazole-resistant fungal pathogens. […] The inventors used the CLSI microbroth dilution method of antifungal susceptibility testing in a checkerboard assay format, where serial 2-fold dilutions of FLC (from 64 μg/ml) were tested in combination with serial 2-fold dilutions of a candidate hit compound (from 50 μg/ml). […] The data from three biological replicates was next used to assess synergy between each compound of interest and FLC. For these purposes, the inventors used the program SynScreen, which extrapolates non-linear fits of dose-response data to determine synergy using the Bliss independence and Loewe additivity analysis models. […] The Bliss Beta coefficient that the program calculates for all combinations further describes potential synergism (if >1), antagonism (if <1), or an additive effect (equal to 1).
(§2) For the purposes of reporting the effect of the test compound on FLC potentiation, the inventors excluded from analyses rows of combinations where TPIML compound alone affects yeast growth. C. krusei are intrinsically resistant to azoles and is predominantly due to a significant reduction of inhibition of the target, cytochrome P450 lanosterol 14α-demethylase, though the role of increased expression of the CaCdr1p homolog in resistance has also been described.

Experiment [4] relates to C. parapsilosis AR Bank #0337. Described as above. It counts as cell-based. The note with it: Lodderomyces parapsilosis; fluconazole alone. As to the method: as §1, §2
In experiment [5] the test system is C. glabrata AR Bank #0314. Described as above. The settings on record: Nakaseomyces glabratus; fluconazole alone. Type of experiment: cell-based. As to the method:
as §1, §2

On to `C=CC[C@@H]1/C=C(\C)C[C@H](C)C[C@H](OC)[C@H]2O[C@@](O)(C(=O)C(=O)N3CCCC[C@H]3C(=O)O[C@H](/C(C)=C/[C@@H]3CC[C@@H](O)[C@H](OC)C3)[C@H](C)[C@@H](O)CC1=O)[C@H](C)C[C@@H]2OC` [tacrolimus], for which the “Response Ratio (Cdr1p-GFP levels relative to basal levels)” value in experiment [1] worked out at 0.8.

`CC[C@H](C)C[C@H](C)CCCCCCCCC(=O)N[C@H]1C[C@@H](O)[C@@H](NCCN)NC(=O)[C@@H]2[C@@H](O)CCN2C(=O)[C@H]([C@H](O)CCN)NC(=O)[C@H]([C@H](O)[C@@H](O)c2ccc(O)cc2)NC(=O)[C@@H]2C[C@@H](O)CN2C(=O)[C@H]([C@@H](C)O)NC1=O` [caspofungin] had an AK fold-increase in experiment [2] of 27. Take `OC(Cn1cncn1)(Cn1cncn1)c1ccc(F)cc1F` [fluconazole]: the MIC50 in experiment [3] stood at 8 µg/mL; in experiment [4] it was 64 µg/mL; in experiment [5] it was 64 µg/mL.

By MIC50 is commonly meant an inhibitory concentration at the 50% level, which refers to growth in some studies and to a panel of isolates in others.
